In patent US20250236596A1, “HYDROXYLAMINE-BASED EGFR INHIBITORS FOR TREATMENT OF CANCER WITH BRAIN METASTASES” (University of Georgia Research Foundation, Inc., priority 2022, published 2025):

Columns and labels:
MDCKII-MDR1 cells = assay: MDCKII-MDR1 cell permeability assay; assay type: in vitro ADME, canine; settings: result in words
Experimental: Compounds were evaluated at Pharmaron Inc. for their ability to permeate Caco-2 cells and MDCKII-MDR1 cells. A 96-well HTS Transwell plate (Corning) was used for the Caco-2 and MDCKII-MDR1 cell seeding. Caco-2 cells were seeded at a density of 6.86×10^5 cells/mL and cultivated for 14-18 days prior to assays. MDCKII-MDR1 cells were seeded at a density of 1.56×10^6 cells/mL and cultivated for 4-8 days prior to assays. To determine the rate of drug transport in both the absorptive (apical to basolateral (A-B)) and secretory (basolateral to apical (B-A)) directions, compounds (5 μM in DMSO for Caco-2 cells, and 1 μM in DMSO for MDCKII-MDR1 cells) were added to the donor wells. Plates were incubated at 37° C. for 2 h and samples (50 μL) were taken at the beginning and end of the incubation in both the donor and acceptor wells with the assay run in duplicate (n=2). Samples were analyzed by LC-MS/MS. The apparent permeability coefficient (Papp) in units (cm/s×10^−6) was calculated using the following equation.
where, VA represents the volume (mL) in the acceptor well. Area is the surface of the membrane (0.143 cm^2 for Transwell-96 well plate) and time is the total transport time in sec.
The efflux ratio was determined using the following equation: Efflux ratio=Papp (B-A)/Papp(A-B)
Where, Papp (B-A) indicates the apparent permeability in the basolateral to apical direction, and Papp (A-B) indicates the apparent permeability in the apical to basolateral direction.

[1] = Metabolic stability in liver microsomes; assay type: in vitro ADME; settings: human and rat / multiple species; result in words
Experimental: (§1) Assessment of the compounds metabolic stability in incubations containing liver microsomes and hepatocytes of human and rat using the compound depletion approach was performed by Pharmaron Inc. Compound 15 underwent additional stability evaluation in monkey and dog hepatocytes. Microsome stability was assessed in duplicate (n=2) in the presence and absence of NADPH with liver microsomes (0.5 mg/mL) from human (BD Gentest) and SD rat (BD Gentest). Compounds were incubated in liver microsomes at 1 μM and samples (30 μL) were taken at 0.5, 15, 30, 45 and 60 min time points for analysis by LC-MS/MS. Hepatocyte stability was assessed in duplicate (n=2) at a working cell density of 0.5×10^6 cells/mL with hepatocytes from human (BioIVT), SD rat (BioIVT), cynomolgous monkey (RILD) or beagle dog (BioIVT). Compounds were incubated in hepatocytes at 1 μM and samples (25 μL) were taken at 0.5, 15, 30, 60, 90 and 120 min time points for analysis by LC-MS/MS. The in vitro half-life and intrinsic clearances were determined as previously described.^19
(§2) In vitro half-life (in vitro t1/2) was determined from the slope value in: in vitro t1/2=−(0.693/k).
(§3) Where, k, was determined by linear regression of the natural logarithm of the remaining percentage of the parent drug vs incubation time curve.

[2] = Metabolic stability in hepatocytes; assay type: in vitro ADME; settings: human and rat; result in words
Experimental: as §1, §2, §3

CYP2C9 = CYP2C9 (Homo sapiens, UniProt P11712); assay: Human CYP450 inhibition in human liver microsomes, CYP2C9; assay type: in vitro ADME; settings: pooled human liver microsomes, probe diclofenac (6 μM), 4′-hydroxylation
Experimental: Assessment of compound 15 was carried out at Pharmaron Inc. for its potential to inhibit cytochrome P450 (CYP) isoforms using human liver microsomes. The activities tested were CYP1A2-mediated phenacetin O-demethylation, CYP2C19-mediated (S)-mephenytoin 4′-hydroxylation, CYP2C9-mediated diclofenac 4′-hydroxylation, CYP2D6-mediated dextromethorphan O-demethylation and CYP3A4-mediated midazolam 1′-hydroxylation. Concentrations of substrates were phenacetin (40 μM), mephenytoin (50 μM), diclofenac (6 μM), dextromethorphan (2 μM) and midazolam (1 μM). Probe substrates phenacetin, mephenytoin and dextromethorphan were incubated at 37° for 20 min. Probe substrates diclofenac and midazolam were incubated at 37° for 5 min. […] The reactions were initiated by adding NADPH (1 mM final concentration) after a 5 min-preincubation and the assay was ran in duplicate (n=2). Samples were analyzed by UPLC-MS/MS.

CYP2D6 = CYP2D6 (Homo sapiens, UniProt P10635); assay: CYP2D6 time-dependent inhibition IC50-shift; assay type: in vitro ADME; settings: human liver microsomes and primary human hepatocytes; 30 min pre-incubation
Experimental: Incubations in human hepatocytes were carried out without pre-incubation or with a 30 min pre-incubation at 37° C., 5% CO2. The experiment was carried out at 37° C., 5% CO2 for 5 min.

[3] = Pharmacokinetics in SD rats (IV and PO); assay type: in vivo; settings: SD rats at the tested doses
Experimental: Animal experiments were performed at Pharmaron Inc. and animal use was approved by Pharmaron's Institutional Animal Care and Use Committee (IACUC) in Pharmaron (Pharmaron IACUC, Protocol #PK-M-07182022, #PK-R-06012022 and #ON-CELL-XEN-06012022) following the guidance of AAALAC. Six- to eight-week-old male SD rats (approximately 200-300 g) obtained from Si Bei Fu Laboratory Animal Technology Co., six- to eight-week-old male CD1 mice (approximately 20-30 g) obtained from Si Bei Fu Laboratory Animal Technology Co., and six- to eight-week-old female BALB/c nude mice (approximately 20-30 g) obtained from Si Bei Fu Laboratory Animal Technology Co., were used in the pharmacokinetic studies. Six- to eight-week-old female BALB/c nude mice (approximately 18-22 g) obtained from Beijing Anikeeper Biotech Co., Ltd were used in the intracranial PDX study. […]
Approximately 0.03 mL of blood was collected from the dorsal metatarsal vein (in the case of CD1 mice), 0.03 mL of blood from the orbit vein (in the case of BALB/c nude mice) or 0.2 mL of blood from the jugular vein (in the case of SD rats) at each time point. […] Concentrations of test articles in the plasma samples were determined using LC-MS/MS and WinNonlin 8.3 (Phoenix™) was used for pharmacokinetic calculations. […]

Sequence of CYP2D6 (P10635 whole entry): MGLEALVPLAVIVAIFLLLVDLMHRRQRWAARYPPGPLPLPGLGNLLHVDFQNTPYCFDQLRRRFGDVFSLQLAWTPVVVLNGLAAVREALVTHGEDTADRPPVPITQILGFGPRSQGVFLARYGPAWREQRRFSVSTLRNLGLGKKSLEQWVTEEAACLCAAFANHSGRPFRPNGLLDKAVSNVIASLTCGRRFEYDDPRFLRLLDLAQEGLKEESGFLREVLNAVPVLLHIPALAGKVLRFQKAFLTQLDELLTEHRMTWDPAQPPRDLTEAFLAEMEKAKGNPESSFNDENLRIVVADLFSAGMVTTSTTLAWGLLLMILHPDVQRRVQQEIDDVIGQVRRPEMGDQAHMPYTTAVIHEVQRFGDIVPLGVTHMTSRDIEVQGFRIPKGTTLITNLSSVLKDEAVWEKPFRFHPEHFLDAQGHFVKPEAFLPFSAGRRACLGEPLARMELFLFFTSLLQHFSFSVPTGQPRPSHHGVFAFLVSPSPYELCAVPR
Sequence of CYP2C9 (P11712 whole entry, canonical isoform): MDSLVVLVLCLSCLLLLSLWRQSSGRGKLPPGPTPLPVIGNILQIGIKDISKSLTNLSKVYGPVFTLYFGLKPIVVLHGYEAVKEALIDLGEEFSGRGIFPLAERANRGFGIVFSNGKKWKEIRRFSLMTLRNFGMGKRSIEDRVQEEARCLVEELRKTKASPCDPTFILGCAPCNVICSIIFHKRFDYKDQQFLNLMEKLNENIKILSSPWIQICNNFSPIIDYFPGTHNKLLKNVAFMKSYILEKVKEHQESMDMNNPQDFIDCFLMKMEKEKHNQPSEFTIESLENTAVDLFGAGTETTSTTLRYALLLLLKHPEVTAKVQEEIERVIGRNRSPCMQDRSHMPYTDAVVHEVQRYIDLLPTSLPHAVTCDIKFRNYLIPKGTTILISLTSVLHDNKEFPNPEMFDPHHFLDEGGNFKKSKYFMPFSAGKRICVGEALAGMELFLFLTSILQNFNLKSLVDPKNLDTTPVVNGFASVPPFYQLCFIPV

COc1cc2ncnc(Nc3cccc(Cl)c3F)c2cc1OCCON1CCN(C)CC1 [Compound 15, N-(3-chloro-2-fluorophenyl)-7-methoxy-6-(2-((4-methylpiperazin-1-yl)oxy)ethoxy)quinazolin-4-amine]
efflux (MDCKII-MDR1 cells): low efflux | permeability (MDCKII-MDR1 cells): excellent permeability | stability in liver microsomes [1]: good stability | stability in hepatocytes [2]: good stability | IC50 at 5 min (CYP2C9): > 30 µM | CYP2D6 time-dependent inhibition (TDI) (CYP2D6): not to be time dependent | adverse events or signs of toxicity [3]: No adverse events or signs of toxicity
